Laboratory results as given in patent publication US9096871B2, “Variant CBH I polypeptides with reduced product inhibition” (BP Corporation North America Inc., priority 2010, dated 2015).
pIC50: −log10 of the molar value. In brackets after ≈: the same amount, converted by molar mass.

Legend:
Assay type in all cases: biochemical
[1] = tested on: CBH I polypeptide BD29555, wild type, SEQ ID NO:1; test: Phosphoric acid swollen cellulose (PASC) assay, cellobiose inhibition, wild type BD29555; conditions: PASC substrate, FIG. 3
Description: (§1) Phosphoric Acid Swollen Cellulose (PASC) Assay: This assay measures the activity of CBH I using PASC as the substrate. During the assay, the concentration of PASC is monitored by a fluorescent signal derived from calcofluor binding to PASC (ex/em 365/440 nm). The assay is initiated by mixing enzyme (15 μl) and reaction buffer (85 μl of 0.2% PASC, 200 mM MES, pH 6), and then incubating at 35° C. while shaking at 225 RPM. After 2 hours, one reaction volume of calcofluor stop solution (100 μg/ml in 500 mM glycine pH 10) is added and fluorescence read-outs obtained (ex/em 365/440 nm).
(§2) Cellobiose Tolerance Assays (or Cellobiose Inhibition Assays): Tolerance to cellobiose (or inhibition caused by cellobiose) was tested in two ways in the CBH I assays. A direct-dose tolerance method can be applied to all of the CBH I assays (i.e., 4-MUL, PASC, and/or bagasse assays), and entails the exogenous addition of a known amount of cellobiose into assay mixtures. A different indirect method entails the addition of an excess amount of β-glucosidase (BG) to PASC and bagasse assays (typically, 1 mg β-glucosidase/g solids loaded). BG will enzymatically hydrolyze the cellobiose generated during these assays; therefore, CBH I activity in the presence of BG can be taken as a measure of activity in the absence of cellobiose. […]

[2] = tested on: BD29555 CBH I variant R273A (parent SEQ ID NO:1); test: Library screening, 4-MUL assay in presence and absence of cellobiose, BD29555 R273A; conditions: library screen, 250 g/L cellobiose (so in the source), gluconolactone present
Description: (§3) 4-Methylumbelliferyl Lactoside (4-MUL) Assay: This assay measures the activity of CBH I on the fluorogenic substrate 4-MUL (also known as MUL). Assays were run in a costar 96-well black bottom plate, where reactions were initiated by the addition of 4-MUL to enzyme in buffer (2 mM 4-MUL in 200 mM MES pH 6). Enzymatic rates were monitored by fluorescent readouts over five minutes on a SPECTRAMAX™ plate reader (ex/em 365/450 nm). Data in the linear range was used to calculate initial rates (Vo).
(§4) Cellobiose Tolerance Assays (or Cellobiose Inhibition Assays): Tolerance to cellobiose (or inhibition caused by cellobiose) was tested in two ways in the CBH I assays. A direct-dose tolerance method can be applied to all of the CBH I assays (i.e., 4-MUL, PASC, and/or bagasse assays), and entails the exogenous addition of a known amount of cellobiose into assay mixtures. […]
(§5) The wild type CBH I polypeptide BD29555 was mutagenized to identify variants with improved product tolerance. […] This product-release-site library was designed based on residues directly interacting with the cellobiose product in an attempt to identify variants with weakened interactions with cellobiose from which the product would be released more readily than the wild type enzyme. […]

[3] = target: T1, T. reesei CBH I, wild type, SEQ ID NO:2 (Trichoderma reesei, UniProt P62694, INS458P/R459P); test: 4-MUL assay, cellobiose inhibition, wild type T. reesei CBH I; conditions: read-out: % Activity in 4-MUL Assay (+/−Cellobiose)
Description: as §3
as §2, with “loaded).” for “loaded). BG will enzymatically hydrolyze the cellobiose generated during these assays; therefore, CBH I activity in the presence of BG can be taken as a measure of activity in the absence of cellobiose.”
(§6) Cellobiose product tolerant substitutions were introduced into T. reesei CBH I (SEQ ID NO:2). A panel of variants with single and double alanine and lysine substitutions at R268 and R411 were expressed and analyzed. […]

[4] = target: T. reesei CBH I variant R268A/R411K (parent SEQ ID NO:2) (Trichoderma reesei, UniProt A0A024RXP8, R268A/R411K); test: 4-MUL assay, cellobiose inhibition, T. reesei CBH I R268A/R411K; conditions: read-out: % Activity in 4-MUL Assay (+/−Cellobiose), 250 mg/L cellobiose, (activity with cellobiose)/(activity without cellobiose)*100
Description: as §3
as §2, with “loaded).” for “loaded). BG will enzymatically hydrolyze the cellobiose generated during these assays; therefore, CBH I activity in the presence of BG can be taken as a measure of activity in the absence of cellobiose.”
as §6

[5] = tested on: BD29555 CBH I variant R273Q (parent SEQ ID NO:1); test: Library screening, 4-MUL assay in presence and absence of cellobiose, BD29555 R273Q; conditions: library screen, 250 g/L cellobiose (so in the source), gluconolactone present
Description: as §3, §4, §5

[6] = tested on: BD29555 CBH I variant R273K/R422K (R268K/R411K by T. reesei numbering; parent SEQ ID NO:1; full length SEQ ID NO:301, mature SEQ ID NO:302); test: 4-MUL assay, cellobiose inhibition, BD29555 R273K/R422K variant
Description: as §3
(§7) Cellobiose Tolerance Assays (or Cellobiose Inhibition Assays): Tolerance to cellobiose (or inhibition caused by cellobiose) was tested in two ways in the CBH I assays. A direct-dose tolerance method can be applied to all of the CBH I assays (i.e., 4-MUL, PASC, and/or bagasse assays), and entails the exogenous addition of a known amount of cellobiose into assay mixtures. A different indirect method entails the addition of an excess amount of β-glucosidase (BG) to PASC and bagasse assays (typically, 1 mg β-glucosidase/g solids loaded). BG will enzymatically hydrolyze the cellobiose generated during these assays; therefore, CBH I activity in the presence of BG can be taken as a measure of activity in the absence of cellobiose. Furthermore, when activity in the presence and absence of BG are similar, this indicates tolerance to cellobiose.
as §5
(§8) Cellobiose dose response curves of the wild-type and R273K/R422K variant of BD29555 were obtained during the 4-MUL assay. Enzyme rates (Vo) were measured in the presence of different concentrations of cellobiose (200 mM MES pH 6, 25° C.). Rates were measured in quadruplicate.

[7] = tested on: CBH I polypeptide BD29555, wild type, SEQ ID NO:1; test: 4-Methylumbelliferyl lactoside (4-MUL) assay, cellobiose inhibition, wild type BD29555
Description: as §3
as §2, with “loaded).” for “loaded). BG will enzymatically hydrolyze the cellobiose generated during these assays; therefore, CBH I activity in the presence of BG can be taken as a measure of activity in the absence of cellobiose.”
as §8

[8] = target: T. reesei CBH I variant R268A/R411A (parent SEQ ID NO:2) (Trichoderma reesei, UniProt A0A024RXP8, R268A/R411A); test: 4-MUL assay, cellobiose inhibition, T. reesei CBH I R268A/R411A; conditions: read-out: % Activity in 4-MUL Assay (+/−Cellobiose), 250 mg/L cellobiose, (activity with cellobiose)/(activity without cellobiose)*100
Description: as §3
as §2, with “loaded).” for “loaded). BG will enzymatically hydrolyze the cellobiose generated during these assays; therefore, CBH I activity in the presence of BG can be taken as a measure of activity in the absence of cellobiose.”
as §6

[9] = tested on: BD29555 CBH I variant R273K/Y274Q/D281K/Y410H/P411G/R422K (parent SEQ ID NO:1); test: 4-MUL assay, cellobiose inhibition, BD29555 R273K/Y274Q/D281K/Y410H/P411G/R422K variant; conditions: 250 mg/L cellobiose, (activity with cellobiose)/(activity without cellobiose)*100
Description: as §3
as §7, with “to cellobiose. […]” for “to cellobiose.”

[10] = tested on: BD29555 CBH I variant R273K/R422K (parent SEQ ID NO:1; full length SEQ ID NO:301, mature SEQ ID NO:302); test: PASC assay, cellobiose inhibition, BD29555 R273K/R422K variant; conditions: 10 g/L cellobiose, PASC substrate, FIG. 3
Description: as §1, §2

[11] = target: T. reesei CBH I variant R268K/R411K (parent SEQ ID NO:2) (Trichoderma reesei, UniProt A0A024RXP8, R268K/R411K); test: 4-MUL assay, cellobiose inhibition, T. reesei CBH I R268K/R411K; conditions: read-out: % Activity in 4-MUL Assay (+/−Cellobiose), 250 mg/L cellobiose, (activity with cellobiose)/(activity without cellobiose)*100
Description: as §3
as §2, with “loaded).” for “loaded). BG will enzymatically hydrolyze the cellobiose generated during these assays; therefore, CBH I activity in the presence of BG can be taken as a measure of activity in the absence of cellobiose.”
as §6

[12] = target: T. reesei CBH I variant R268K/R411A (parent SEQ ID NO:2) (Trichoderma reesei, UniProt A0A024RXP8, R268K/R411A); test: 4-MUL assay, cellobiose inhibition, T. reesei CBH I R268K/R411A; conditions: read-out: % Activity in 4-MUL Assay (+/−Cellobiose), 250 mg/L cellobiose, (activity with cellobiose)/(activity without cellobiose)*100
Description: as §3
as §2, with “loaded).” for “loaded). BG will enzymatically hydrolyze the cellobiose generated during these assays; therefore, CBH I activity in the presence of BG can be taken as a measure of activity in the absence of cellobiose.”
as §6

[13] = target: T1, T. reesei CBH I, wild type, SEQ ID NO:2; test: PASC assay, cellobiose inhibition, wild type T. reesei CBH I
Description: as §1, §2

T1 sequence (P62694 other isoform, or with tags, fused parts or gaps INS458P/R459P): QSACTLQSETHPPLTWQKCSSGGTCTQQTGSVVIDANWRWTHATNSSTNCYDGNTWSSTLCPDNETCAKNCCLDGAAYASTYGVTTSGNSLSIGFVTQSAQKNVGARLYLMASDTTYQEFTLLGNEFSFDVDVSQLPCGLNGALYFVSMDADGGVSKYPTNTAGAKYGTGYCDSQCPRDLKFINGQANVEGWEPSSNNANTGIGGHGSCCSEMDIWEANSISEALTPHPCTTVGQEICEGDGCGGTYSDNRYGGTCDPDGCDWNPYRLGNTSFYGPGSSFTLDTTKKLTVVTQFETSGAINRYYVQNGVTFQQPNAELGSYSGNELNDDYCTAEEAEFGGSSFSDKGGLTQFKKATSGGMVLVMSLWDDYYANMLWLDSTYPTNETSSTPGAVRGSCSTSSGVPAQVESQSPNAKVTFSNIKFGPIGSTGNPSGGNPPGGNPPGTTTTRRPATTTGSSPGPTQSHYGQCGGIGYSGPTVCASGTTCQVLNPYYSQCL
T. reesei CBH I variant R268A/R411A (parent SEQ ID NO:2), sequence (A0A024RXP8 18-514 R268A/R411A): as the sequence (P62694 other isoform, or with tags, fused parts or gaps INS458P/R459P) above, with R251A, R394A counted along it
T. reesei CBH I variant R268A/R411K (parent SEQ ID NO:2), sequence (A0A024RXP8 18-514 R268A/R411K): as the sequence (P62694 other isoform, or with tags, fused parts or gaps INS458P/R459P) above, with R251A, R394K counted along it
T. reesei CBH I variant R268K/R411A (parent SEQ ID NO:2), sequence (A0A024RXP8 18-514 R268K/R411A): as the sequence (P62694 other isoform, or with tags, fused parts or gaps INS458P/R459P) above, with R251K, R394A counted along it
T. reesei CBH I variant R268K/R411K (parent SEQ ID NO:2), sequence (A0A024RXP8 18-514 R268K/R411K): as the sequence (P62694 other isoform, or with tags, fused parts or gaps INS458P/R459P) above, with R251K, R394K counted along it

## OC[C@H]1O[C@@H](O[C@H]2[C@H](O)[C@@H](O)C(O)O[C@@H]2CO)[C@H](O)[C@@H](O)[C@@H]1O (stereo partly drawn) [cellobiose]
[1]
  IC50: 2200 µg/mL (≈ 6.43 mM)
  cellobiose concentration at which inhibition starts: around 1 g/L
[2]
  product tolerance: enhanced product tolerance
[3]
  activity at 250 µg/mL: 23%
[4]
  activity at 250 µg/mL: > 90%
[5]
  product tolerance: enhanced product tolerance
[6]; 250 mg/L cellobiose, (activity with cellobiose)/(activity without cellobiose)*100, R273K/R422K
  % Activity in 4-MUL Assay (+/−Cellobiose): 95%
[6]; 4-MUL substrate, 200 mM MES pH 6, 25° C., FIG. 1B
  tolerance to cellobiose (dose response): tolerant to cellobiose up to 250 mg/L
[6]; library screen, 4-MUL assay, 250 g/L cellobiose (so in the source), gluconolactone present
  product tolerance: enhanced product tolerance
[7]; 250 mg/L cellobiose, (activity with cellobiose)/(activity without cellobiose)*100, wild type BD29555
  % Activity in 4-MUL Assay (+/−Cellobiose): 25%
[7]; 4-MUL substrate, 200 mM MES pH 6, 25° C., rates in quadruplicate, FIG. 1A
  half maximal inhibitory concentration (IC50 value): 60 µg/mL
[8]
  activity at 250 µg/mL: > 90%
[9]
  % Activity in 4-MUL Assay (+/−Cellobiose): 78%
[10]
  inhibition by cellobiose: little inhibition
[11]
  activity at 250 µg/mL: > 90%
[12]
  activity at 250 µg/mL: > 90%
[13]
  pIC50: 2.06
[13]; PASC substrate, FIG. 3
  cellobiose concentration at which inhibition starts: around 1 g/L
